According to ChEMBL document CHEMBL1125693, “Synthesis and biological activity of new halo-steroidal antiestrogens” (J Med Chem, 1991):

Legend:
[1] = biological target: T1, Estrogen receptor (Mus musculus) (UniProt O08537+P19785); experiment: Inhibition of estradiol-induced uterine weight gain in ovariectomized BALB/c mice at 20 ug dose twice daily; assay type: functional
[2] = biological target: T1, Estrogen receptor (Mus musculus); experiment: Inhibition of estradiol-induced uterine weight gain in ovariectomized BALB/c mice at 3 ug dose twice daily; assay type: functional

T1 sequence (O08537 whole entry, looked up): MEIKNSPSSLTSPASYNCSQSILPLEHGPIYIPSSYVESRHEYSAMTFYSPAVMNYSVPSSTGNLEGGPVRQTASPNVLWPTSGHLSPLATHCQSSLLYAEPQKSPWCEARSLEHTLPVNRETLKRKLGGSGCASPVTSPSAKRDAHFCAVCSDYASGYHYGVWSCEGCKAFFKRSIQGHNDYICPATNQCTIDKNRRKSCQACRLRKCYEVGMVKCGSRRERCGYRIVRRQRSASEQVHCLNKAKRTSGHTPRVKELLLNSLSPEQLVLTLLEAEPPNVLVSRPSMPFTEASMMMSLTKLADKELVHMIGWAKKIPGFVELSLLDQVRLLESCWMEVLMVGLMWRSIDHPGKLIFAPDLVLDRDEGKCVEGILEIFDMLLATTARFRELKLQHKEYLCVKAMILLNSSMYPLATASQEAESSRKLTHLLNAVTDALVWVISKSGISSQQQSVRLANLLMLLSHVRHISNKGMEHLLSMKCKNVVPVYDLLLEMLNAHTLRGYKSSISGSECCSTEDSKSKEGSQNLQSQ
T1 sequence (P19785 whole entry, looked up): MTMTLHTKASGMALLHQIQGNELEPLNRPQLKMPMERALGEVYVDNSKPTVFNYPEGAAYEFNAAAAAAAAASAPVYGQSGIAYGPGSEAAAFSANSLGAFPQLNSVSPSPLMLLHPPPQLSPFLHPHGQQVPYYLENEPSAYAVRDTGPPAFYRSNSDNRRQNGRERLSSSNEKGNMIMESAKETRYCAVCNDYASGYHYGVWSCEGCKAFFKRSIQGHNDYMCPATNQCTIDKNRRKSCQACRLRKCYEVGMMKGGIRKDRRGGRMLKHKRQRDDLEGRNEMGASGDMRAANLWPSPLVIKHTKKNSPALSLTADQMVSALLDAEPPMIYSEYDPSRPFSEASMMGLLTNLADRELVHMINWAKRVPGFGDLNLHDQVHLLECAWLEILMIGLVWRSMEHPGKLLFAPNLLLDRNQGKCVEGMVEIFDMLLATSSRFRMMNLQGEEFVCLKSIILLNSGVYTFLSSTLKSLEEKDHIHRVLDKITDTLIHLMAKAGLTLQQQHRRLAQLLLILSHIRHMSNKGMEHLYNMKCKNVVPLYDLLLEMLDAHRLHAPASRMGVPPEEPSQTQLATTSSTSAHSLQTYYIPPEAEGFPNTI

| inhibition [1] | inhibition [2] | SMILES |
| --- | --- | --- |
| 79% | 52% | CCCCN(C)C(=O)CCCCCCCCCC[C@@H]1Cc2cc(O)ccc2[C@H]2CC[C@]3(C)[C@@H](O)[C@H](Br)C[C@H]3[C@H]12 |
| – | 63% | CCCCN(C)C(=O)CCCCCCCCCC[C@@H]1Cc2cc(O)ccc2[C@H]2CC[C@]3(C)[C@@H](O)[C@H](I)C[C@H]3[C@H]12 |
| – | 35% | CCCCN(C)C(=O)CCCCCCCCCC[C@@H]1Cc2cc(O)ccc2[C@H]2CC[C@]3(C)[C@H](O)[C@H](Cl)C[C@H]3[C@H]12 |
| 78% | 60% | CCCCN(C)C(=O)CCCCCCCCCC[C@@H]1Cc2cc(O)ccc2[C@H]2CC[C@]3(C)[C@H](O)[C@H](Br)C[C@H]3[C@H]12 |
| – | 74% | CCCCN(C)C(=O)CCCCCCCCCC[C@@H]1Cc2cc(O)ccc2[C@H]2CC[C@]3(C)[C@@H](O)[C@H](Cl)C[C@H]3[C@H]12 |

| SMILES | inhibition [1] | inhibition [2] |
| --- | --- | --- |
| CCCCN(C)C(=O)CCCCCCCCCC[C@@H]1Cc2cc(O)ccc2[C@H]2CC[C@]3(C)[C@@H](O)CC[C@H]3[C@H]12 | – | 40% |
